In ChEMBL document CHEMBL1125330, “N-substituted pyrazino[2,3-c][1,2,6]thiadiazine 2,2-dioxides. A new class of diuretics” (J Med Chem, 1992) one finds Na and V data, which are given here for one compound.

The species entered for data set [1] is Rattus norvegicus. In words: Mean sodium excretion in rats (Control/Drug treatment value); value 0.5/1.79. Format: ADME, organism-based. Conditions: in vivo.
The species entered for data set [2] is Rattus norvegicus. Nature of the data set: Mean urinary output in rats (Control/Drug treatment value); value 27.7/36.4. To be noted: in vivo. Format: ADME, organism-based, Urine.

Turning to `CCN1c2nc(C)c(C)nc2C(N)=NS1(=O)=O`, in data set [1], the Na is 3.6 m equiv 6hr-1 kg-1 (body weight)-1. In data set [2], this compound showed a V of 1.3.
